From article PMC7497249, “Synthesis and Biological Screening of New Lawson Derivatives as Selective Substrate‐Based Inhibitors of Cytochrome bo3 Ubiquinol Oxidase from Escherichia coli” (Chemmedchem, 2020)
Several values for one entry are separate records, joined by “and”; a condition that tells them apart may be missing. Equal values may be shown once. Read-outs that look alike come from different tables or passages of the source.

Tests used:
[1] = molecular target: T1, purified E. coli cyt bo3 oxidase (Escherichia coli, UniProt P0ABI8); experiment: biochemical; settings: for inhibition at 250 µM: read-out: inhibition (reduction) of cyt bo3 activity; for remaining activity at 250 µM: read-out: Residual activity for oxygen reduction, Cytochrome bo3
T1 construct: made in house; host or cells: E. coli strain GO195 with plasmid pIRHisA
T1 sequence (P0ABJ1 25-315): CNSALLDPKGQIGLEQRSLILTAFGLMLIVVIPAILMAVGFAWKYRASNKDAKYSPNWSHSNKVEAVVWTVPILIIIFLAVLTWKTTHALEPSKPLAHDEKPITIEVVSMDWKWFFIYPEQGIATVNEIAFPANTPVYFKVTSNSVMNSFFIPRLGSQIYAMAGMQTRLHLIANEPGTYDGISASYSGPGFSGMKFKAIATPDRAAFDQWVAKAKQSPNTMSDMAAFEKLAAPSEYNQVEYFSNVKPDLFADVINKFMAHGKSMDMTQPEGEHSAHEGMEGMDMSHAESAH
T1 sequence (P0ABJ3 whole entry, further chain): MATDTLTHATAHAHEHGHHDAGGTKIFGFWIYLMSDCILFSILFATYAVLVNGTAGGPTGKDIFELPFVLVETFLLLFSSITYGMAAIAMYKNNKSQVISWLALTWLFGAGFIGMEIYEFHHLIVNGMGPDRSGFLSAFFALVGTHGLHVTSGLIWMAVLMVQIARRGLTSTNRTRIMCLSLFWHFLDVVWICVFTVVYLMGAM
T1 sequence (P0ABI8 whole entry): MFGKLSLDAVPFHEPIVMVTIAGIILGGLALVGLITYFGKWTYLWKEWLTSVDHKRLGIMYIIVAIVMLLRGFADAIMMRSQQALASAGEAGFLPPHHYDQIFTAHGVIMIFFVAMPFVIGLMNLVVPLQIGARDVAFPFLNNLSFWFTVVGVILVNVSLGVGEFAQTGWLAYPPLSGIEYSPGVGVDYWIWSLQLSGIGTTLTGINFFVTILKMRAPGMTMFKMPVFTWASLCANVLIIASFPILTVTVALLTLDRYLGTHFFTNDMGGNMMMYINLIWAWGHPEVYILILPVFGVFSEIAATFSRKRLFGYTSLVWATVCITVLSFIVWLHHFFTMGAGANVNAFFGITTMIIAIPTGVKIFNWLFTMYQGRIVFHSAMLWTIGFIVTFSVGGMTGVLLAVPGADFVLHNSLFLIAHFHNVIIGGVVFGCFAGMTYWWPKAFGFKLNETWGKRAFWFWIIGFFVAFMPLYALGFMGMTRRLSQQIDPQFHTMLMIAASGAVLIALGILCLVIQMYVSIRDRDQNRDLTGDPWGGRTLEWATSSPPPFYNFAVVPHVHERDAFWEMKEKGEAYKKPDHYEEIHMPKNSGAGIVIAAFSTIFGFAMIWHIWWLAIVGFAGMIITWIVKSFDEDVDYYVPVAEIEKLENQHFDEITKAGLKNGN
T1 sequence (P0ABJ6 whole entry, further chain): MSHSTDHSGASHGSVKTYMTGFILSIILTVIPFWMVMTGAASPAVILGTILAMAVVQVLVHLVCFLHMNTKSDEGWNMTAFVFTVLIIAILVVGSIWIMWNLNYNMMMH
Experimental: (§1) The inhibitory effect of a set of HNQs was screened in micromolar range to identify selective cyt bo3 and cyt bd‐I inhibitors. Oxygen reduction was measured via a Clark‐type electrode. Turnover rates of cyt bo3 and bd‐I experiments are presented as relative activities (Figure 1). For experimental overview and further information see Supporting Information (Figures S38–S40), Tables S2–3). Activity of cyt bo 3 was strongly (>50 %) reduced by HNQ‐1, ‐2, ‐6, ‐7 and ‐12. […]. Overall, the E. coli bd‐I‐type oxidase was less sensitive to the majority of examined compounds. […]; HNQ‐12: 56 %).
(§2) Figure 1 Screening of the inhibition potentials of tested hydroxynaphthoquinones (HNQ) on the oxidase reduction activity of purified E. coli cytbo3 (white) and bd‐I (light gray) oxidase. Inhibition assay using HNQs at 250 μM in the presence of 200 μM ubiquinone‐1 and 5 mM dithiothreitol. Oxygen reduction activity was calculated from oxygen consumption rates at 30 nM enzyme concentration at RT for each experiment. 100 % activity=adding corresponding volume of EtOH. KCN (20 μM) and HQNO (250 μM) represent positive inhibition controls for cyt bo3. The data are mean values of three independent experiments ± standard deviation.
(§3) Oxygen reductase activity measurements: Oxygen reductase activity was measured as oxygen consumption rate of purified protein by an OX‐MR Clark‐type oxygen electrode linked to a PA 2000 picoammeter and to an ADC‐216 for analog to digital conversion. Recording of data with SensorTrace Basic 2.1 software (all Unisense, Denmark).
(§4) Measurements were performed at room temperature in stirred 2 mL – glass vials with a total reaction volume of 600 μL. Oxygen consumption was initiated by adding 30 nM of the respective enzyme to the equilibrated mixture containing 20 mM NaPi (pH 8.0), 50 mM NaCl, 0.02 % DDM, 5 mM dithiothreitol (DTT) and 200 μM Ubiquinone‐1 (2,3‐dimethoxy‐5‐methyl‐6‐(3‐methylbut‐2‐en‐1‐yl)‐1,4‐benzoquinone). Equilibration was done for 10 min prior to enzyme addition. Inhibition experiments with 250 μM of respective HNQ from 20 mM stock solution in EtOH before equilibration. Data analysis and visualization with Origin Lab Pro 9.5 (Additive GmbH, Germany). HQNO (2‐heptyl‐4‐quinolinol 1‐oxide) was purchased from biomol GmbH, Hamburg. Determination of apparent k i (k i ^app) was performed under the same conditions but with a range of inhibitor concentrations from 1000 μM to 0.2 μM. The k i ^app value was adopted as the EC50 from the sigmoidal DoseResp Fit. Further information can be found in Figures S40–S43.

[2] = molecular target: T2, purified E. coli cyt bd-I oxidase (Escherichia coli, UniProt P0ABJ9); experiment: biochemical; settings: for remaining activity at 250 µM: read-out: Residual activity for oxygen reduction, Cytochrome bd-I
T2 construct: made in house; host or cells: E. coli C43(DE3) Δbo3 with plasmid pet17b-cydABX-StrepII
T2 sequence (P56100 whole entry): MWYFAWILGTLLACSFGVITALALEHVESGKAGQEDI
T2 sequence (P0ABJ9 whole entry): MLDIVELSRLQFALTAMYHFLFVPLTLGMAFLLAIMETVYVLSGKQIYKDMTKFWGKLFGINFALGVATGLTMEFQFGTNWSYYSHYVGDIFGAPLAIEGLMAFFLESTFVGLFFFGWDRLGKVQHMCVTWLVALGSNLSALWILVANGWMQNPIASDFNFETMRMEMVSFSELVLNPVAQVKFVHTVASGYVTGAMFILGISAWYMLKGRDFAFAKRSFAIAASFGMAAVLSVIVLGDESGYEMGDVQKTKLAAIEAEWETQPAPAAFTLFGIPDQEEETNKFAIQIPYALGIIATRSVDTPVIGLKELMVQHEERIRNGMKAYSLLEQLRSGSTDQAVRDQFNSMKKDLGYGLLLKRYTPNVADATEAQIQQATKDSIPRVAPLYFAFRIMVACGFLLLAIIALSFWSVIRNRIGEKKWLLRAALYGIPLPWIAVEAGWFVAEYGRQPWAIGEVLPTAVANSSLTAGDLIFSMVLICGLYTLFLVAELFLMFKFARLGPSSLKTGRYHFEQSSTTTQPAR
T2 sequence (P0ABK2 whole entry, further chain): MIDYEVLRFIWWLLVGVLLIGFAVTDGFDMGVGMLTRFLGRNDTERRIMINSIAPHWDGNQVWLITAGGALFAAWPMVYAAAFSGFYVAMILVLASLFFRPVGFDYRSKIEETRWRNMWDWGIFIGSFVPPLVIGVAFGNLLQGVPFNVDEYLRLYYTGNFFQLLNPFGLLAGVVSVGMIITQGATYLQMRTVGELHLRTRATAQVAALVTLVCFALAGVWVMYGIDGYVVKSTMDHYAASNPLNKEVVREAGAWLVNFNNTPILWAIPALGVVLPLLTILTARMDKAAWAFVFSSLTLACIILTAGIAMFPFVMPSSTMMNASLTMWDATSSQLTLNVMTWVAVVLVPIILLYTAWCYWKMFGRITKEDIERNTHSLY
Experimental: as §1, §2, §3, §4

[3] = absorbance-based thermodynamic equilibrium solubility assay; format: physicochemical; settings: buffer 20 mM NaPi, 50 mM NaCl, 0.02 % DDM, pH 8.0, room temperature; for solubility at 1 day: sodium phosphate buffer
Experimental: To meet the requirements for further functional investigations, the solubilities of the HNQ compounds were determined by an absorbance‐based thermodynamic equilibrium solubility assay.36 As shown in Scheme 3a, plotting absorbance over concentration at the wavelength of the maximum peak of the absorbance spectra, (HNQ‐2 at λ=274 nm), provides a saturation point at 1.26±0.03 mM (solubility graphs for all HNQ compounds are shown in Figure S37). […]. Therefore, all twelve HNQ compounds are feasible for further functional studies.
Solubility assay: Thermodynamic equilibrium solubility of HNQ compounds was determined in sodium phosphate buffer containing 20 mM NaPi, 50 mM NaCl, 0.02 % DDM at pH 8.0. All steps were performed at room temperature following the method by Bharate and Vishwakarma.36 Measurements were done in triplicates. HNQ compounds were dissolved in a particular amount of methanol or CH2Cl2 (HNQ‐9) needed for complete dissolving. Required volumes of these methanol stock solutions were transferred in 1.5 mL reaction tubes (0.1–600 μL dependent on compound and stock concentration) to get a concentration row. After 24–48 h complete evaporation of methanol or CH2Cl2 was accomplished. Remaining solid compounds were dissolved by adding 100/200 μL of sodium phosphate buffer to the reaction tubes, which were shaken at 200 rpm for one day for equilibration. Next day, centrifugation of the reaction tubes for 30 min at 13 000 rpm at 11000 g. 50/100 μL of supernatant were pipetted into a 96‐well plate (UV‐Star, Greiner), and absorbance spectra were recorded for each well with a TECAN Spark plate reader (Tecan Trading AG, Switzerland). By plotting absorbance at λ max against concentration [mM] of the compound, saturation point of graph indicates the thermodynamic equilibrium solubility. Data analysis and visualization with SigmaPlot Pro 12.5 (Systat Software GmbH, Germany).

cyt bo3 = molecular target: T3, cyt bo3 (Escherichia coli, UniProt P0ABI8); settings: steady state kinetic experiments; read-out: kiapp; cited from earlier work
T3 construct: made in house; host or cells: E. coli strain GO195 with plasmid pIRHisA
T3 sequence (P0ABJ1 25-315): as the sequence (P0ABJ1 25-315) above
T3 sequence (P0ABI8 whole entry): as the sequence (P0ABI8 whole entry) above
T3 sequence (P0ABJ3 whole entry, further chain): as the sequence (P0ABJ3 whole entry, further chain) above
T3 sequence (P0ABJ6 whole entry, further chain): as the sequence (P0ABJ6 whole entry, further chain) above

[4] = HNQ 250 μM, 200 μM ubiquinone-1
[5] = inhibitor 250 µM, 200 μM ubiquinone-1, 5 mM DTT, 30 nM enzyme, RT, mean of three ± SD, 100 % = EtOH
[6] = aqueous with cosolvent or surfactant or cyclodextrin, thermodynamic from solid
[7] = inhibitor 250 µM, 200 μM ubiquinone-1, 5 mM DTT, 30 nM enzyme, RT, mean of three ± SD, 100 % = EtOH, listed as HNQ-4

Compound | Residual activity for oxygen reduction, Cytochrome bo3 [1, 5] | inhibitory effect on cyt bd-I oxidase [2, 4] | inhibition at 250 µM [1, 4] | remaining activity at 250 µM [1, 5] | remaining activity at 250 µM [2, 5] | solubility at 1 day [3, 6] | inhibitory effect on cyt bo3 activity (in words) ([1]; HNQ 250 μM) | inhibitory effect on cyt bd-I activity (in words) ([2]; HNQ 250 μM) | other results
2‐Hydroxy‐3‐[(3,5‐dihydroxybenzyl)methyl]‐1,4‐naphthoquinone [HNQ‐10] | 69.1 ± 8% | – | – | – | – | – | – | – | inhibition (reduction) of cyt bo3 activity [1, 4]: 31%; Residual activity for oxygen reduction, Cytochrome bd-I [2, 5]: 107 ± 8%; Solubility [3]: 840±151 μg/mL and 2.1±0.4 mM
2‐Hydroxy‐3‐[(4‐phenoxybenzyl)methyl]‐1,4‐naphthoquinone [HNQ‐12] | 13.1 ± 7% | 56% | – | – | – | – | – | – | inhibition (reduction) of cyt bo3 activity [1, 4]: > 50%; Residual activity for oxygen reduction, Cytochrome bd-I [2, 5]: 43.8 ± 7%; Solubility [3]: 1640±94 μg/mL and 4.6±0.3 mM
2‐Hydroxy‐3‐[(ferreocenyl)methyl]‐1,4‐naphthoquinone [HNQ‐9] | – | – | – | – | – | – | – | – | Residual activity for oxygen reduction, Cytochrome bo3 [1]: 84.4 ± 17%; inhibition (reduction) of cyt bo3 activity [1]: < 30%; Residual activity for oxygen reduction, Cytochrome bd-I [2]: 110 ± 17%; inhibitory effect on cyt bd-I oxidase [2]: < 30%; Solubility [3]: >8.3 mM
CCCCCCCCCCCCCC1=C(O)C(=O)c2ccccc2C1=O [HNQ‐1, 2‐Hydroxy‐3‐tridecyl‐1,4‐naphthoquinone] | – | 30% | > 50% | 2.64 ± 12% | 70.2 ± 12% | 335 µg/mL and 1020 µM | – | – | –
O=C1C(O)=C(Cc2ccccc2)C(=O)c2ccccc21 [HNQ‐2, 2‐Hydroxy‐3‐methylene‐(benzyl)‐1,4‐naphthoquinone] | – | – | > 50% | 21.8 ± 6% | 107 ± 6% | – | strong inhibitory effect | not influencing | Solubility ([3]; aqueous with cosolvent or surfactant or cyclodextrin, thermodynamic from solid, read-out: Solubility): 334 µg/mL and 1260 µM
O=C1C(O)=C(Cc2ccncc2)C(=O)c2ccccc21 [HNQ‐3, 2‐Hydroxy‐3‐methylen‐(4‐N‐pyridyl)‐1,4‐naphthoquinone] | – | < 30% | < 30% | 99.5 ± 12% | 110 ± 12% | 627 µg/mL and 2360 µM | activity remains unaffected | activity remains unaffected | –
CN(C)c1ccc(CC2=C(O)C(=O)c3ccccc3C2=O)cc1 [HNQ‐4, 2‐Hydroxy‐3‐methylen‐(4‐N,N ‐dimethylanilid)‐1,4 naphthoquinone] | 15% | < 30% | < 30% | – | – | 267 µg/mL and 870 µM | – | – | Residual activity for oxygen reduction, Cytochrome bo3 [1, 7]: 84.8 ± 11%; Residual activity for oxygen reduction, Cytochrome bd-I [2, 5]: 15%; Residual activity for oxygen reduction, Cytochrome bd-I [2, 7]: 84.2 ± 11%
O=C1C(O)=C(Cc2ccc3[nH]ncc3c2)C(=O)c2ccccc21 [HNQ‐5, 2‐Hydroxy‐3‐[(indazol‐5‐yl)methyl]‐1,4‐naphthoquinone] | – | – | 40% | 59.9 ± 7% | 117 ± 7% | 1670 µg/mL and 5500 µM | – | – | –
O=C1C(O)=C(Cc2ccc3c(c2)OCO3)C(=O)c2ccccc21 [HNQ‐6, 2‐Hydroxy‐3‐[(1,2‐methylenedioxybenz‐5 yl)methyl]‐1,4‐naphthoquinone] | < 30% | – | > 50% | 27.3 ± 13% | 109 ± 13% | 400 µg/mL and 780 µM | – | – | –
COc1cc(CC2=C(O)C(=O)c3ccccc3C2=O)ccc1O [HNQ‐7, 2‐Hydroxy‐3‐[(4‐hydroxy‐3‐methoxyphenyl)methyl]‐1,4‐naphthoquinone] | < 50% | – | > 50% | 49.5 ± 7% | 106 ± 7% | > 2680 µg/mL and > 8300 µM | – | – | –
O=C1C(O)=C(Cc2c[nH]c3ncccc23)C(=O)c2ccccc21 [HNQ‐8, 2‐Hydroxy‐3‐[(1H‐pyrrolo(2,3‐b)pyridine‐3‐yl)methyl]‐1,4‐naphthoquinone] | – | < 30% | – | 101 ± 5% | 106 ± 5% | > 3140 µg/mL and > 10300 µM | could not show an influence | could not show an influence | –
O=C1C(O)=C(C(c2nc3ccccc3s2)N2CCC[C@H]2C(=O)O)C(=O)c2ccccc21 (stereo partly drawn) [HNQ‐11, 2‐Hydroxy‐3‐[(2‐thiazol(2‐3)benzyl)methyl)pyrrolidine‐2‐carboxylic acid‐1,4‐naphthoquinone] | – | < 30% | < 30% | 115 ± 13% | 111 ± 13% | 800 µg/mL and 1840 µM | could not show an influence | could not show an influence | –
CCCCCCCc1cc(O)c2ccccc2[n+]1[O-] [HQNO, 2‐heptyl‐4‐quinolinol 1‐oxide, reference compound] | – | – | – | 4.42 ± 6% | 9.05 ± 1% | – | – | – | Ki (cyt bo3): 700 nM
